From patent US20220009920A1 (GB005, Inc., priority 2020, published 2022)

Tests used:
Experiment in all cases: Large panel kinase profiling
Format in all cases: biochemical
Conditions in all cases: 1 μM test article, 1 mM ATP
[1] = target: T1, CRIK/CIT (Homo sapiens, UniProt O14578)
T1 construct: AssayQuant Technologies, Inc. (ran the panel)
In short: (§1)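 Kinase activity was followed with the PhosphoSens CSox-Sensor platform, testing compound at 1 μM in the presence of 1 mM ATP. Reactions ran at 30° C. and fluorescence (Ex 360 nm/Em 485 nm) was read kinetically every 1 min.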

[2] = target: T2, CSNK1A1/CK1A1 (Homo sapiens, UniProt P48729)
T2 construct: AssayQuant Technologies, Inc. (service laboratory)
In short: as §1

[3] = target: EPHA2 (Homo sapiens, UniProt P29317)
In short: as §1

[4] = target: T3, EPHB1 (Homo sapiens, UniProt P54762)
T3 sequence (P54762 18-984): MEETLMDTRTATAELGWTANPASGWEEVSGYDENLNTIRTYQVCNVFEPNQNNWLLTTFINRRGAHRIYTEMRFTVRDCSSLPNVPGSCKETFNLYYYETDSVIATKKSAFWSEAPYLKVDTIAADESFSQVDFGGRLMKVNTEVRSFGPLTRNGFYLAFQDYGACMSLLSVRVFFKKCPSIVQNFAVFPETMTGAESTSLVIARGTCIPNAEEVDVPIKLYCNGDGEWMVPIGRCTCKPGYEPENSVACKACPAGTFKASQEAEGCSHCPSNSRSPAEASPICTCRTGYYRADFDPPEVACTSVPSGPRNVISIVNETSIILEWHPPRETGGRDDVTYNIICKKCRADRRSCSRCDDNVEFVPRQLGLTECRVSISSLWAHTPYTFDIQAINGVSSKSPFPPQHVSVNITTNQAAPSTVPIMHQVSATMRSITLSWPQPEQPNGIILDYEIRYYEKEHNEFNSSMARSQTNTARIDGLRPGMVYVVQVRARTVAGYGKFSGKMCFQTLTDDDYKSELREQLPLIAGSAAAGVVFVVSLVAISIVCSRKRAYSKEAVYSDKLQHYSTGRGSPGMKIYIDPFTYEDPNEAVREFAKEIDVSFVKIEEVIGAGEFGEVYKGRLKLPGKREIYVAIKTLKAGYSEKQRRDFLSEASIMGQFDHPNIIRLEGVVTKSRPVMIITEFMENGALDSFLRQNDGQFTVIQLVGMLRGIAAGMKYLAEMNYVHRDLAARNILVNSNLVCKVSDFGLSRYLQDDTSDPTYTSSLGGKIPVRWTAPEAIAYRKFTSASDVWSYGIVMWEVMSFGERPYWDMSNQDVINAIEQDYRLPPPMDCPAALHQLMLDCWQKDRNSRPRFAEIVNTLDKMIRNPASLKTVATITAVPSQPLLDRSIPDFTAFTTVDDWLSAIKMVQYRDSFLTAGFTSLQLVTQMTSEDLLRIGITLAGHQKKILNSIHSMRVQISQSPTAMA
In short: as §1

[5] = target: T4, EPHB4 (Homo sapiens, UniProt P54760)
T4 sequence (P54760 16-987): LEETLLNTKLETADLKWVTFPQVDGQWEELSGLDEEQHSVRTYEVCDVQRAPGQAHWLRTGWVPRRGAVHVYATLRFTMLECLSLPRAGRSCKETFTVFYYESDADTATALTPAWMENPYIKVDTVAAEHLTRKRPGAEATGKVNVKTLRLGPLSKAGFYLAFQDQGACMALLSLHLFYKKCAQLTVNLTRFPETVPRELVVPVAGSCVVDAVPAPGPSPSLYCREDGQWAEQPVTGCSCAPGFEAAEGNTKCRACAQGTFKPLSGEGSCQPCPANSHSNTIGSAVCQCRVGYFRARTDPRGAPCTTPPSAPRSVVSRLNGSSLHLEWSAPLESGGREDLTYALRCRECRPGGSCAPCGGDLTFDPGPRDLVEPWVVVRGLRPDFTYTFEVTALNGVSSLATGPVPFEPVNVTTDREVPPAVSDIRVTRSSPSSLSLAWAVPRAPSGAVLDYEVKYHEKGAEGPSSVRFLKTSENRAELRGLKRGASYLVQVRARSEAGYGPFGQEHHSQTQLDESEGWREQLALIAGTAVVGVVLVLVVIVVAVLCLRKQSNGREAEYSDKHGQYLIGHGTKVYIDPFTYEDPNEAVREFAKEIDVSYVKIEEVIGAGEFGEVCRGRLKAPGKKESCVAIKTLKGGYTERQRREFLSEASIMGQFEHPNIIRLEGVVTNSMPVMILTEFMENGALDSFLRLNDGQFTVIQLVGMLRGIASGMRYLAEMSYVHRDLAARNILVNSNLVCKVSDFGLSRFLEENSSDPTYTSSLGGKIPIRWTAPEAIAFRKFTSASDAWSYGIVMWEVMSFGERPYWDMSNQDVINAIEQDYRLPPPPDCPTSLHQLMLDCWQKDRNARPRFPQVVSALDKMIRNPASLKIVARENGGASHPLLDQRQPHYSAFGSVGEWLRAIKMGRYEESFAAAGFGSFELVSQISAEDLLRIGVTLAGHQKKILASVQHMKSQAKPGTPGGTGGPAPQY
In short: as §1

[6] = target: INSRR (Homo sapiens, UniProt P14616)
In short: as §1

[7] = target: LIMK1 (Homo sapiens, UniProt P53667)
In short: as §1

[8] = target: T5, MARK2 (Homo sapiens, UniProt Q7KZI7)
T5 construct: AssayQuant Technologies, Inc. (assay service)
In short: as §1

[9] = target: T6, MINK1 (Homo sapiens, UniProt Q8N4C8)
T6 construct: AssayQuant Technologies, Inc. (assay service)
In short: as §1

[10] = target: PLK1 (Homo sapiens, UniProt P53350)
In short: as §1

Sequence of PLK1 (P53350 whole entry, species assumed): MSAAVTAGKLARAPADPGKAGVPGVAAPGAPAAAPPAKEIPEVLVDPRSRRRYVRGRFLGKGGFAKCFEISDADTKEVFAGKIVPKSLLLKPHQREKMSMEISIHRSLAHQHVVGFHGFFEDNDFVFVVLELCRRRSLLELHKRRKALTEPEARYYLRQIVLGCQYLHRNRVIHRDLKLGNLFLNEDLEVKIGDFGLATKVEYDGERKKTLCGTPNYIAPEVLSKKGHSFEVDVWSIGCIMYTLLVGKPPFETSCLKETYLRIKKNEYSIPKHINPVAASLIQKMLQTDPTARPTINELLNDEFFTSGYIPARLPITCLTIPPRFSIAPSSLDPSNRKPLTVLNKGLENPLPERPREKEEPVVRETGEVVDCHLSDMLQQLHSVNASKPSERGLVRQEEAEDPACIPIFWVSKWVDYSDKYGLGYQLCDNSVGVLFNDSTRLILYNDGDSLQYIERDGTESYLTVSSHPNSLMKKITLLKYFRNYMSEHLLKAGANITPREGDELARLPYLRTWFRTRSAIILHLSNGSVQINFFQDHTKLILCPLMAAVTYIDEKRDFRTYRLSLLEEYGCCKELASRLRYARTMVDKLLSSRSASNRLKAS
Sequence of LIMK1 (P53667 whole entry, species assumed): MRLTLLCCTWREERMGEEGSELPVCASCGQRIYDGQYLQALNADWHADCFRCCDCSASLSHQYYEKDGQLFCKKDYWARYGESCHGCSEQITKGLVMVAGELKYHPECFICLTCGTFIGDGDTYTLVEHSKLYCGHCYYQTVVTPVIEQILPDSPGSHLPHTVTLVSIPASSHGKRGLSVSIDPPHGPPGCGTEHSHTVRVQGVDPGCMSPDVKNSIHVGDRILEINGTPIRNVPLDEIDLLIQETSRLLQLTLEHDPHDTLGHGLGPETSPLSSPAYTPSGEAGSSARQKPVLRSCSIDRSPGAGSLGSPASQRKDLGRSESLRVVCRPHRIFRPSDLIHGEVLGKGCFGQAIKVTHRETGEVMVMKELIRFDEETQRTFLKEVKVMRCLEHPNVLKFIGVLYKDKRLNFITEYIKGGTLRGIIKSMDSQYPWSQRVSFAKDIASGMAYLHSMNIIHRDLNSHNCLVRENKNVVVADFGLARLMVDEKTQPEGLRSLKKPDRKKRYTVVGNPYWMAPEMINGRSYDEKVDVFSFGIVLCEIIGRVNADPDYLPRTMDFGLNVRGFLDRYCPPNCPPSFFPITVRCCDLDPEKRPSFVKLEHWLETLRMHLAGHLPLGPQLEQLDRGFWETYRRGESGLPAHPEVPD
T1 sequence (O14578 whole entry): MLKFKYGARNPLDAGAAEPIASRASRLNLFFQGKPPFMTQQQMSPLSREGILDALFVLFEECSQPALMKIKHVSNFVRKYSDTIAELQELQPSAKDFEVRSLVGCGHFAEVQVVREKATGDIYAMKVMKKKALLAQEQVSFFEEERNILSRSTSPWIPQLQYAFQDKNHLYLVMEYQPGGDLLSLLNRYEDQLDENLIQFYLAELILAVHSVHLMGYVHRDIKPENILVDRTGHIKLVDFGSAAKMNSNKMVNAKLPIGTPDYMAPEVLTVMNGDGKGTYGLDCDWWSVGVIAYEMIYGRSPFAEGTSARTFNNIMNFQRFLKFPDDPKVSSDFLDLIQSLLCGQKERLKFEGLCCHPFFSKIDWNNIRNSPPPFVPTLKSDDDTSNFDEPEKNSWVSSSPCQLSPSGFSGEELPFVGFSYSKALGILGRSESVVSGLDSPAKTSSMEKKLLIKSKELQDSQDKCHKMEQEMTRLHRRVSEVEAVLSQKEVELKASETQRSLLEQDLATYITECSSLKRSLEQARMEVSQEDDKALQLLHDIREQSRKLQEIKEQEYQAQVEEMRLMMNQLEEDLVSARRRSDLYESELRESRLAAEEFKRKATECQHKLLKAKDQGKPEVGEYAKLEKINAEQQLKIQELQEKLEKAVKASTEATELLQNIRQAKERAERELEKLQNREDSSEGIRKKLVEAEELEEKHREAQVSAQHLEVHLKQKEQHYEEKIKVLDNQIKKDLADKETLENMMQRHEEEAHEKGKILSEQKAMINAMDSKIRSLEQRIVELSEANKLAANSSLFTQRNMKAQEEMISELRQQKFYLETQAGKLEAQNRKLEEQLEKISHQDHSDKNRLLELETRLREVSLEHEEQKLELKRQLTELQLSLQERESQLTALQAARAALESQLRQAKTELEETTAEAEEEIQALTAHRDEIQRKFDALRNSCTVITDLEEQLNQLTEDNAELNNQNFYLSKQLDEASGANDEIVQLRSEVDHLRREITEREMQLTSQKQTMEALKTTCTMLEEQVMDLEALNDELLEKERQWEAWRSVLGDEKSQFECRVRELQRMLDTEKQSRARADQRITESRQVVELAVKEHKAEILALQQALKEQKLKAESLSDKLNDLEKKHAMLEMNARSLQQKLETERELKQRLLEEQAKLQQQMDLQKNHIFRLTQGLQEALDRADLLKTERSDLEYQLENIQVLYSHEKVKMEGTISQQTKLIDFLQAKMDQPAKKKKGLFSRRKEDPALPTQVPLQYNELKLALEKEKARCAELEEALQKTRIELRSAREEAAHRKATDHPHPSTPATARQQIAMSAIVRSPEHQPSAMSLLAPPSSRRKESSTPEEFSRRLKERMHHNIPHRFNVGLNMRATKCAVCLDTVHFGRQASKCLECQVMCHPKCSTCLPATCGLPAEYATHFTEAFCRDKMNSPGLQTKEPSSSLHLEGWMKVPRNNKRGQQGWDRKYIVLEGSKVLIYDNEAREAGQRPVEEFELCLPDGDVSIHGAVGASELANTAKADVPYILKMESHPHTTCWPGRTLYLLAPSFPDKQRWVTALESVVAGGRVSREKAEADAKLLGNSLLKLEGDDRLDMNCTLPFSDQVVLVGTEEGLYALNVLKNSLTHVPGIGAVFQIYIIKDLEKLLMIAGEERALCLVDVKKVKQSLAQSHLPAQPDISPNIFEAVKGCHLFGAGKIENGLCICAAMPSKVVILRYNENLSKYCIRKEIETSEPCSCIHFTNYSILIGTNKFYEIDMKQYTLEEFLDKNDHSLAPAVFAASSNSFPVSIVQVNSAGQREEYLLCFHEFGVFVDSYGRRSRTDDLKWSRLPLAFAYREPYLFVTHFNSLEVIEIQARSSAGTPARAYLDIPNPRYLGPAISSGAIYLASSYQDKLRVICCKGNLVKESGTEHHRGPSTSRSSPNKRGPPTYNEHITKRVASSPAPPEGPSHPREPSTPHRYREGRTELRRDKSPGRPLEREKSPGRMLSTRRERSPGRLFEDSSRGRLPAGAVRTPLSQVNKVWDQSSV
T2 sequence (P48729 whole entry): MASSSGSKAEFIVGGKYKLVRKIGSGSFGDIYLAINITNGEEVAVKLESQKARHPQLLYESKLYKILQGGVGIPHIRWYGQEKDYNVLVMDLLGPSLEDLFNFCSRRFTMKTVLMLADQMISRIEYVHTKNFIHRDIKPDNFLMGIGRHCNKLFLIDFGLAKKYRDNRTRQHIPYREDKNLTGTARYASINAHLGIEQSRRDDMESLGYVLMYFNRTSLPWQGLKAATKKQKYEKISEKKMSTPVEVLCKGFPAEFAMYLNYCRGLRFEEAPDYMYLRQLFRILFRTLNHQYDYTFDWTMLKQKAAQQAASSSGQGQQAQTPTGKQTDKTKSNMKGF
Sequence of EPHA2 (P29317 24-976, species assumed): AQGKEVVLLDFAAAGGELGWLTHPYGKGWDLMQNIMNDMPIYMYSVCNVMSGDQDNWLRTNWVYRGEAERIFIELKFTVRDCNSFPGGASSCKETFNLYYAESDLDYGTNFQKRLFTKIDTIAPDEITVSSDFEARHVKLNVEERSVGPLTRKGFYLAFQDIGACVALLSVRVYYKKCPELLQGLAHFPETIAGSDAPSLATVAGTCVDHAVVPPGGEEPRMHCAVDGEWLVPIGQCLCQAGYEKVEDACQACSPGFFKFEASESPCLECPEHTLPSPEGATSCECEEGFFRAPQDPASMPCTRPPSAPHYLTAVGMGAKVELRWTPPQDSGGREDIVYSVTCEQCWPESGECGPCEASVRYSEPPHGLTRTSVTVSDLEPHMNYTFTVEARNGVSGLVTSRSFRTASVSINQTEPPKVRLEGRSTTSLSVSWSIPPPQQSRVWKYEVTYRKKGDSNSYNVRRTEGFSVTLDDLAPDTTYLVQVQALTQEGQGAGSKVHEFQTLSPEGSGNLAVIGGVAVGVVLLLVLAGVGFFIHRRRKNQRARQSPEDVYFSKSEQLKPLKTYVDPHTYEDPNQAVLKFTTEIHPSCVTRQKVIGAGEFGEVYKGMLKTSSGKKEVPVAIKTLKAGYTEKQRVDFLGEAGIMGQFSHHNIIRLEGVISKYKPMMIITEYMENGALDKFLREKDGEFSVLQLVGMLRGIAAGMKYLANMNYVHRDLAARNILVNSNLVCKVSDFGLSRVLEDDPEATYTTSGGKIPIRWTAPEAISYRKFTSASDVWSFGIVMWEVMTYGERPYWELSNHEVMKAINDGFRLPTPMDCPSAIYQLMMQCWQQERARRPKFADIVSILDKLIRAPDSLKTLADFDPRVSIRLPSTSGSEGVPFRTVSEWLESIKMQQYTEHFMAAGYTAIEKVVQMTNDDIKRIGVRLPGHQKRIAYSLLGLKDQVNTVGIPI

Compound	inhibition at 1 µM [1] [%]	inhibition at 1 µM [2] [%]	inhibition at 1 µM [3] [%]	inhibition at 1 µM [4] [%]	inhibition at 1 µM [5] [%]	inhibition at 1 µM [6] [%]	inhibition at 1 µM [7] [%]	inhibition at 1 µM [8] [%]	inhibition at 1 µM [9] [%]	inhibition at 1 µM [10] [%]
C=CC(=O)N1CCCC(c2c(F)cc(C(N)=O)c3[nH]c4c(c23)CCCCC4)C1 (single isomer, unassigned) [Compound 5-6]	-9.9	9.6	-1.9	14.5	7	10.7	-7.2	11.8	-2.8	-6.3
C=CC(=O)N1CCC[C@@H](c2c(F)cc(C(N)=O)c3[nH]c4c(c23)CCC4)C1 [Compound 10-2, (S)-8-(1-acryloylpiperidin-3-yl)-7-fluoro-1,2,3,4-tetrahydrocyclo-penta[b]indole-5-carboxamide]	11.1	-2.8	-9.6	-3.1	-8.5	-5.7	-10.7	-8.8	-18.4	13.8
C=CC(=O)N1CCC[C@@H](c2c(F)cc(C(N)=O)c3[nH]c4c(c23)CC2(CC4)CC2)C1 [Compound 6-2, (S)-5-(1-acryloylpiperidin-3-yl)-6-fluoro-1,2,4,9-tetrahydrospiro[carbazole-3,1′-cyclopropane]-8-carboxamide]	9.1	11.2	9.5	12.4	7.4	-54.1	-14.7	-33.3	-22.7	-4.3
